These results are taken from patent publication US5821118A, “Genes for the subunits of human farnesyl-protein transferase” (Merck & Co., Inc., priority 1995, dated 1998).

Like-named read-outs stand apart in the source and are kept apart here.

As a reminder, the IC50 is the concentration that inhibits the measured activity by half. Low readings indicate inhibition by little substance, high ones a need for much substance.

One test deals with T1, Bovine brain FTase (Bos taurus, UniProt P29702+P49355).
T1 construct: an assay employing bovine brain FPTase; from tissue; host or cells: bovine brain
The experiment in a line: Assay of compounds for FPTase inhibitory activity, bovine brain FPTase. It is filed as biochemical. Here is the method: The purified, recombinantly expressed, mammalian FPTase is employed in an assay to determine the inhibitory activity against FPTase mediated farnesylation of Ras by various pharmaceutical compounds. […] The purified mammalian FPTase is then added to the assay mixture and the assay mixture is incubated for a period of time such as 10-30 minutes at 30° C. The assay mixture is then quenched and the Ras protein is separated from free FPP by techniques well known in the art. […] This value may be compared to the relative value of the amount of Ras farnesylated in the absence of the pharmaceutical agent and to the relative value of the amount of Ras farnesylated in the presence of other pharmaceutical agents.
[^3 H]Farnesyl diphosphate (FPP) (20 Ci/mmol) was purchased from New England Nuclear. In general, inhibitory activity assays were carried out at 30° C. A typical assay reaction contained (in a final volume of 50 μL): [^3 H]farnesyl diphosphate, Ras protein (3.5 μM), 50 mM HEPES, pH 7.5, 5 mM MgCl2, 1 mM dithiothreitol, and the compound to be assayed. After thermally preequilibrating the assay mixture, the reaction was initiated by the addition of the purified mammalian FPTase and the reaction was stopped at timed intervals by the addition of 1M HCl in ethanol (1 mL). The quenched reactions were allowed to stand for 15 minutes. After adding 2 mL of 100% ethanol, the mixtures were vacuum filtered through Whatman GF/C filters. Filters were washed four times with 2 mL aliquots of 100% ethanol, mixed with scintillation fluid (10 mL) and then counted in a Beckmann LS3801 scintillation counter.

The target in a further test is T2, human FPTase (Homo sapiens, UniProt P49354+P49356).
T2 construct: codons for Glutamic acid-Glutamic acid-Phenylalanine-stop were placed after the last codon for the β subunit; made in house; host or cells: E. coli DH5a
The test is described as follows: Assay of compounds for FPTase inhibitory activity, once purified human FPTase. It counts as biochemical.

The mark [1] stands for this setting: Bovine brain FTase, Ras protein 3.5 μM, pH 7.5, 30° C, * = alternative substrates (CVIM, CVIL, FPP).
Where [2] appears, read: Human FTase, Ras protein 3.5 μM, pH 7.5, 30° C, * = alternative substrates (CVIM, CVIL, FPP).

In the case of `CC(C)=CCC/C(C)=C/CC/C(C)=C/C(O)P(=O)(O)O` (racemic) [Compound A, (R,S)[1hydroxy-(E,E)-3,7,11-trimethyl-2,6,10-dodeca-trienyl]phosphonic acid], the IC50 on Bovine brain FTase is 0.02 µM; against human FPTase, 0.018 µM.

As for `CC(C)=CCC/C(C)=C/CC/C(C)=C/CO[P@@](=O)(O)OP(=O)(O)O` (stereo in doubt) [FPP, farnesyl diphosphate], the half-inhibitory concentration (IC50) against Bovine brain FTase was 0.2 µM; at human FPTase, 0.25 µM.

On to `CC(C)=CCC/C(C)=C/CC/C(C)=C/CC/C(C)=C/COP(=O)(O)OP(=O)(O)O` [GGPP, geranylgeranyl-diphosphate], for which the values for the IC50 at Bovine brain FTase and on human FPTase were 0.2 µM and 0.24 µM, respectively.

As to “cysteinylisolleucinyl-phenylalaninyl-methionine [CIFM]”, the IC50 is 0.01 µM against Bovine brain FTase (setting [1]) and 0.017 µM against human FPTase (setting [2]).

For the molecule “cysteinylvalinyl-isolleucinyl-leucine (CVIL)”, the figures for the IC50 with Bovine brain FTase (setting [1]) and with human FPTase (setting [2]) were 20 µM and 6.2 µM, respectively.
